For orientation: MIC means the lowest concentration found to suppress growth. The low end stands for inhibition by little substance, the high end for a need for much substance.

This passage reports MIC results from DBAASP.

Values after ≈ are worked out from the molar mass of the structure shown.

Holding throughout (assay): ≥ marks a high value that may be exact or a test limit, other limits are often not marked, values filed in µg/mL are converted to µM
Experiment [1] has as its system Escherichia coli ATCC 25922.
The subject of experiment [2] is Pseudomonas aeruginosa ATCC 27853.
For the next experiment, the system named is Pseudomonas aeruginosa.
In a further experiment the test system is Escherichia coli.
For experiment [3], the system named is Staphylococcus aureus ATCC 25923.

For the compound `CSCC[C@H](NC(=O)[C@H](CCCCN)NC(=O)[C@H](CCCCN)NC(=O)[C@H](CCCCN)NC(=O)[C@H](CCCN=C(N)N)NC(=O)[C@H](CCCN=C(N)N)NC(=O)[C@H](Cc1ccc(O)cc1)NC(=O)[C@@H](N)CCCN=C(N)N)C(=O)N[C@@H](CCCCN)C(=O)N[C@@H](CCCCN)C(N)=O` [RYRRKKKMKK], the minimum inhibitory concentration (MIC) in experiment [1] and in experiment [2] was greater than 100 µM each time. Compound `CC[C@H](C)[C@H](NC(=O)[C@H](Cc1ccccc1)NC(=O)[C@H](CO)NC(=O)[C@H](CCCCN)NC(=O)[C@H](Cc1c[nH]c2ccccc12)NC(=O)[C@@H](N)CCCCN)C(=O)N[C@@H](CCCCN)C(=O)N[C@@H](CCCCN)C(=O)N[C@@H](CCCCN)C(=O)N[C@H](C(=O)N[C@@H](CO)C(=O)N[C@@H](CCCCN)C(=O)N[C@@H](Cc1ccccc1)C(=O)N[C@@H](CC(C)C)C(=O)N[C@@H](Cc1cnc[nH]1)C(=O)N[C@@H](CO)C(=O)N[C@@H](C)C(=O)N[C@@H](CCCCN)C(=O)N[C@@H](CCCCN)C(=O)N[C@@H](Cc1ccccc1)C(N)=O)[C@@H](C)O` [KWKSFIKKKTSKFLHSAKKF] returned a minimal inhibitory concentration (MIC) in the experiment with Pseudomonas aeruginosa greater than 20.3 µM. Take `CC(C)C[C@H](NC(=O)[C@H](CC(C)C)NC(=O)[C@@H](N)CCCCN)C(=O)N[C@@H](CCCN=C(N)N)C(=O)N[C@@H](CCCCN)C(=O)N[C@@H](CCCCN)C(=O)N[C@@H](Cc1ccccc1)C(=O)N[C@@H](Cc1c[nH]c2ccccc12)C(=O)N[C@@H](Cc1c[nH]c2ccccc12)C(=O)NCC(N)=O` [KLLRKKFWWG]: the MIC against Escherichia coli stood at 91.8 µM (≈ 125 µg/mL); in experiment [3], 184 µM (≈ 250 µg/mL). Regarding `CC[C@H](C)[C@H](NC(=O)[C@H](CCCN=C(N)N)NC(=O)[C@H](Cc1c[nH]c2ccccc12)NC(=O)[C@@H](N)Cc1ccccc1)C(=O)N[C@@H](CCCN=C(N)N)C(=O)N[C@@H](CCCCN)C(=O)N[C@@H](Cc1c[nH]c2ccccc12)C(=O)N[C@@H](CCCN=C(N)N)C(N)=O` [FWRIRKWR], in experiment [1], the minimum inhibitory concentration (MIC) was found to be 25.7 µM (≈ 32 µg/mL).

In experiment [1], `CC(C)C[C@H](NC(=O)[C@H](Cc1ccccc1)NC(=O)[C@@H]1CCCN1C(=O)[C@H](Cc1c[nH]c2ccccc12)NC(=O)[C@H](Cc1c[nH]c2ccccc12)NC(=O)[C@H](C)NC(=O)[C@@H]1CCCN1C(=O)[C@H](Cc1ccccc1)NC(=O)[C@H](CCCN=C(N)N)NC(=O)[C@H](CCCN=C(N)N)NC(=O)[C@@H](N)C(C)C)C(=O)N[C@@H](CCCN=C(N)N)C(=O)N[C@@H](CCCN=C(N)N)C(N)=O` [VRRFPAWWPFLRR] gave an MIC of 45.3 µM (≈ 80.8 µg/mL). Turning to `CC[C@H](C)[C@H](NC(=O)CN)C(=O)NCC(=O)N[C@@H](CCCCN)C(=O)N[C@@H](Cc1ccccc1)C(=O)N[C@@H](CC(C)C)C(=O)N[C@@H](Cc1cnc[nH]1)C(=O)N[C@@H](CO)C(=O)N[C@@H](C)C(=O)N[C@@H](CCCCN)C(=O)N[C@@H](CCCCN)C(=O)N[C@@H](Cc1ccccc1)C(=O)NCC(=O)N[C@@H](CCCCN)C(=O)N[C@@H](C)C(=O)N[C@@H](Cc1ccccc1)C(=O)N[C@H](C(=O)NCC(=O)N[C@@H](CCC(=O)O)C(=O)N[C@H](C(=O)N[C@@H](CCSC)C(=O)N[C@@H](CC(N)=O)C(=O)N[C@@H](CO)C(=O)NCC(=O)NCC(=O)N[C@@H](CO)C(N)=O)[C@@H](C)CC)C(C)C` [GIGKFLHSAKKFGKAFVGEIMNSGGS], the MIC in experiment [1] came to 2.23 µM (≈ 5.94 µg/mL). `CC[C@H](C)[C@H](NC(=O)[C@H](CCSC)NC(=O)[C@@H](NC(=O)[C@H](CCC(=O)O)NC(=O)CNC(=O)[C@H](CC(C)C)NC(=O)[C@H](Cc1ccccc1)NC(=O)[C@H](C)NC(=O)[C@H](CCCCN)NC(=O)CNC(=O)[C@H](Cc1ccccc1)NC(=O)[C@H](CCCCN)NC(=O)CNC(=O)[C@H](C)NC(=O)[C@H](CO)NC(=O)[C@H](Cc1cnc[nH]1)NC(=O)[C@H](CC(C)C)NC(=O)[C@H](Cc1ccccc1)NC(=O)[C@H](CCCCN)NC(=O)CN)C(C)C)C(=O)NCC(=O)O` [GKFLHSAGKFGKAFLGEVMIG]: the minimum inhibitory concentration (MIC) in experiment [1] and in experiment [3] was greater than 100 µM in each case. Regarding `CC[C@H](C)[C@H](NC(=O)[C@H](CCCN=C(N)N)NC(=O)[C@H](CCCCN)NC(=O)[C@H](CC(C)C)NC(=O)[C@H](CC(C)C)NC(=O)CN)C(=O)N[C@@H](C)C(=O)N[C@H](C(=O)N[C@@H](CC(C)C)C(=O)N[C@@H](CC(C)C)C(N)=O)[C@@H](C)O` [GLLKRIATLL], the minimal inhibitory concentration (MIC) in experiment [1] and in experiment [3] was 10 µM (≈ 11 µg/mL) each time. For `CC[C@H](C)[C@H](NC(=O)CN)C(=O)N[C@@H](CC(C)C)C(=O)N[C@@H](CO)C(=O)N[C@H](C(=O)N[C@H](C(=O)N[C@@H](CCCCN)C(=O)N[C@@H](CC(=O)O)C(=O)N[C@@H](Cc1ccccc1)C(=O)N[C@@H](C)C(=O)N[C@H](C(=O)N[C@@H](CCCCN)C(=O)N[C@@H](C)C(=O)NCC(=O)N[C@@H](CCCCN)C(=O)NCC(=O)N[C@@H](C)C(=O)N[C@@H](C)C(=O)N[C@@H](CCCCN)C(=O)NCC(=O)N[C@@H](CC(C)C)C(=O)N[C@@H](CC(C)C)C(=O)N[C@@H](CCC(=O)O)C(=O)N[C@@H](CCSC)C(=O)N[C@@H](C)C(=O)N[C@@H](CO)C(=O)N[C@H]1CSSC[C@@H](C(=O)O)NC(=O)[C@H](CCC(N)=O)NC(=O)CNC(=O)[C@H](CO)NC(=O)[C@H](CC(C)C)NC(=O)[C@H](CCCCN)NC1=O)[C@@H](C)CC)[C@@H](C)CC)[C@@H](C)O` [GILSTIKDFAIKAGKGAAKGLLEMASCKLSGQC], the minimum inhibitory concentration (MIC) in experiment [1] was found to be 3 µM (≈ 9.93 µg/mL). On the same count and under the same terms, in the case of `CC[C@H](C)[C@H](NC(=O)CN)C(=O)N[C@@H](CCSC)C(=O)N[C@@H](CC(=O)O)C(=O)N[C@H](C(=O)N[C@H](C(=O)N[C@@H](CCCCN)C(=O)N[C@@H](CC(N)=O)C(=O)N[C@H](C(=O)N[C@@H](C)C(=O)N[C@@H](CCCCN)C(=O)N[C@@H](CC(N)=O)C(=O)N[C@@H](CC(C)C)C(=O)N[C@@H](C)C(=O)NCC(=O)N[C@@H](CCC(N)=O)C(=O)N[C@@H](CC(C)C)C(=O)N[C@@H](CC(C)C)C(=O)N[C@@H](CC(=O)O)C(=O)N[C@@H](CCCCN)C(=O)N[C@@H](CC(C)C)C(=O)N[C@@H](CCCCN)C(=O)N[C@H]1CSSC[C@@H](C(=O)O)NC(=O)[C@H](C)NC(=O)[C@H]([C@@H](C)O)NC(=O)[C@H]([C@@H](C)CC)NC(=O)[C@H](CCCCN)NC1=O)C(C)C)C(C)C)[C@@H](C)O` [GIMDTVKNVAKNLAGQLLDKLKCKITAC] it was 25 µM (≈ 74.7 µg/mL).

On to `CC[C@H](C)[C@H](NC(=O)[C@H](Cc1c[nH]c2ccccc12)NC(=O)[C@H](CCCCN)NC(=O)[C@@H]1CCCN1C(=O)[C@H](CC(C)C)NC(=O)[C@H](CCCCN)NC(=O)CNC(=O)[C@@H](NC(=O)[C@@H](NC(=O)[C@@H](N)CO)[C@@H](C)O)[C@@H](C)CC)C(=O)N[C@H](C(=O)N[C@@H](CCCCN)C(=O)N[C@H](C(=O)N[C@H](C(=O)N[C@@H](CC(N)=O)C(=O)N[C@@H](CCCCN)C(=O)N[C@@H](Cc1ccccc1)C(=O)N[C@H](C(=O)N[C@@H](CCCCN)C(=O)N[C@@H](CCCCN)C(=O)O)[C@@H](C)O)C(C)C)[C@@H](C)O)[C@@H](C)CC` [STIGKLPKWIIKTVNKFTKK], for which the minimum inhibitory concentration (MIC) against Escherichia coli is 2.8 µM (≈ 6.53 µg/mL). For the compound `CC(C)C[C@H](NC(=O)[C@H](CCCCN)NC(=O)[C@H](CCCCN)NC(=O)[C@H](C)NC(=O)[C@H](CC(C)C)NC(=O)[C@H](CCCCN)NC(=O)[C@H](C)NC(=O)[C@H](CC(C)C)NC(=O)[C@H](CCCCN)NC(=O)[C@H](CCCCN)NC(=O)[C@H](C)NC(=O)[C@H](CC(C)C)NC(=O)[C@@H](N)CCCCN)C(=O)N[C@@H](C)C(N)=O` [KLAKKLAKLAKKLA], the figures for the minimal inhibitory concentration (MIC) in experiment [1], in experiment [2] and in experiment [3] were 6 µM (≈ 9.14 µg/mL), 3 µM (≈ 4.57 µg/mL) and 6 µM (≈ 9.14 µg/mL), respectively.
